In brackets after ≈: the same amount, converted by molar mass. Where two headings read alike, the source gives them in different places.
Tests used:
[1] = system: KRAS G12C-dependent Ba/F3 cells; experiment: Ba/F3 proliferation assay, KRAS G12C; type: cell-based; details: Mus musculus, BaF3, 72 h, AlamarBlue
Description: Plasmids containing KRASG12 mutants (i.e. […], G12C, G12V) are obtained from GeneScript. To generate KRASG12-dependent Ba/F3 models, Ba/F3 cells are transduced with retroviruses containing vectors that harbor KRASG12 isoforms. Platinum-E cells (Cell Biolabs) are used for retrovirus packaging. Retrovirus is added to Ba/F3 cells. To ensure infection, 4 μg/mL polybrene is added and cells are spinfected. […] Cells with an infection efficiency of 10% to 20% are further cultivated and puromycin selection with 1 μg/mL is initiated. As a control, parental Ba/F3 cells are used to show selection status. Selection is considered successful when parental Ba/F3 cells cultures died. To evaluate the transforming potential of KRASG12 mutations, the growth medium is no longer supplemented with IL-3. Ba/F3 cells harboring the empty vector are used as a control. Approximately ten days before conducting the experiments, puromycin is left out.
Compounds are added using an Access Labcyte Workstation with a Labcyte Echo 550 or 555 accoustic dispenser. All treatments are performed in technical duplicates. […] AlamarBlue™ (ThermoFisher), a viability stain, is added and fluorescence measured in the PerkinElmer Envision HTS Multilabel Reader. The raw data are imported into and analyzed with the Boehringer Ingelheim proprietary software MegaLab (curve fitting based on the program PRISM, GraphPad Inc.).

NCI-H358 cells = experiment: NCI-H358 CTG proliferation assay (120 h) (NSCLC, G12C); type: cell-based, human; details: Homo sapiens
Description: NCI-H358 CTG Proliferation Assay (120 h) (NSCLC, G12C)
NCI-H358 cells (ATCC No. CRL-5807) are dispensed into white bottom opaque 96 well plates (Perkin Elmer cat no. 5680) at a density of 2000 cells per well in 100 μL RPMI-1640 ATCC-Formulation (Gibco #A10491)+10% FCS (fetal calf serum) (assay 1) or into black 384-well plates, flat and clear bottom (Greiner, PNr. 781091) at a density of 200 cells per well in 60 μl RPMI-1640 ATCC-Formulation (Gibco #A10491)+10% FCS (fetal calf serum) (assay 2). […] Compounds (10 mM stock in DMSO) are added at logarithmic dose series using the HP Digital Dispenser D300 (Tecan) (assay 1) or the ECHO acoustic liquid handler system (Beckman Coulter) (assay 2), normalizing for added DMSO and including DMSO controls. For the TO time point measurement, untreated cells are analyzed at the time of compound addition. Plates are incubated for 120 h, and cell viability is measured using CellTiter-Glo luminescent cell viability reagent (Promega product code G7570). Viability (stated as percent of control) is defined as relative luminescence units RLU of each well divided by the RLU of cells in DMSO controls. IC50 values are determined from viability measurements by non-linear regression using a four parameter model.

NCI-H2122 cells = experiment: NCI-H2122 CTG proliferation assay (120 h) (NSCLC, G12C); type: cell-based; details: Homo sapiens
Description: NCI-H2122 CTG Proliferation Assay (120 h) (NSCLC, G12C)
The CTG assay is designed to measure quantitatively the proliferation of NCI-H2122 cells (ATCC CRL-5985), using the CellTiter Glow Assay Kit (Promega G7571). Cells are grown in RPMI medium (ATCC) supplemented with Fetal Calf Serum (Life Technologies, Gibco BRL, Cat. No. 10270-106). On “day 0” 200 NCI-H2122 cells are seeded in 60 μL RPMI ATCC+10% FCS+Penstrep in a black 384-well plate, flat and clear bottom (Greiner, PNr. 781091). Cells are then incubated in the plates at 37° C. in a CO2 incubator overnight. On day 1, compounds (10 mM stock in DMSO) are added with the ECHO acoustic liquid handler system (Beckman Coulter), including DMSO controls. Plates are incubated for 120 h, and cell viability is measured using CellTiter-Glo luminescent cell viability reagent (Promega product code G7570). Viability (stated as percent of control) is defined as relative luminescence units RLU of each well divided by the RLU of cells in DMSO controls. IC50 values are determined from viability measurements by non-linear regression using a four parameter model.

SAS cells = experiment: SAS CTG proliferation assay (120 h) (HNSCC, wt amplified); type: cell-based
Description: SAS CTG Proliferation Assay (120 h) (HNSCC, Wt Amplified)
SAS cells (JCRB0260) are dispensed into 384-well plates, flat and clear bottom (Greiner, PNr. 781091) at a density of 300 cells per well in 60 μL DMEM:F12 (Gibco 31330-038)+10% Fetal Calf Serum (HyClone, PNr.: SH30084.03) and incubated at 37° C. in a CO2 incubator overnight. The next day, compounds (10 mM stock in DMSO) are added with the ECHO acoustic liquid handler system (Beckman Coulter), including DMSO controls. Plates are incubated for 120 h, and cell viability is measured using CellTiter-Glo luminescent cell viability reagent (Promega product code G7570). Viability (stated as percent of control) is defined as relative luminescence units RLU of each well divided by the RLU of cells in DMSO controls. IC50 values are determined from viability measurements by non-linear regression using a four-parameter model.

[2] = Solubility measurement (DMSO solution method), McIlvaine buffer pH 4.5 or 6.8; type: physicochemical; details: aqueous buffer, kinetic from dmso stock, DMSO stock diluted to 250 μM, 24 h shaking at ambient temperature
Description: The DMSO solution is diluted with an aqueous medium (Mcllvaine buffer with pH=4.5 or 6.8) to a final concentration of 250 μM. After 24 h of shaking at ambient temperature a potentially formed precipitate is removed by filtration. The concentration of the test compound in the filtrate is determined by LC-UV methods by calibrating the signal to the signal of a reference solution with complete dissolution of the test compound in acetonitrile/water (1:1) with known concentration.

[3] = assay 2, CTG, read-out: H358 (assay 2) IC50
[4] = McIlvaine buffer pH 4.5, read-out: solubility pH 4.5
[5] = McIlvaine buffer pH 6.8, read-out: solubility pH 6.8

SMILES	IC50 [1]	IC50 (NCI-H358 cells; [3])	IC50 (NCI-H2122 cells)	solubility at 24 h [2, 4]	solubility at 24 h [2, 5]	IC50 (NCI-H358 cells; assay 1, CTG, read-out: H358 (assay 1) IC50)	IC50 (SAS cells)
C[C@H](Oc1cc(N2CCOC3(CC3)C2)nc(-c2noc3c2CCC[C@@]32CCCc3sc(N)c(C#N)c32)n1)[C@@H]1CCCN1C [II-61]	47 nM	1420 nM	2340 nM	111 µg/mL (≈ 184 µM)	41 µg/mL (≈ 68.1 µM)	–	169 nM
C[C@H](Oc1cc(N2Cc3cnn(C)c3C2)nc(-c2noc3c2CCC[C@@]32CCCc3sc(N)c(C#N)c32)n1)[C@@H]1CCCN1C [II-63]	114 nM	66 nM	3390 nM	< 1 µg/mL	< 1 µg/mL	–	1310 nM
C[C@H](Oc1cc(-n2cnc3cccnc32)nc(-c2noc3c2CCC[C@@]32CCCc3sc(N)c(C#N)c32)n1)[C@@H]1CCCN1C [II-65]	97 nM	3220 nM	2550 nM	7 µg/mL (≈ 11.5 µM)	< 1 µg/mL	–	173 nM
C[C@H](Oc1cc(N2CC[C@@H](O)C2)nc(-c2noc3c2CCC[C@@]32CCCc3sc(N)c(C#N)c32)n1)[C@@H]1CCCN1C [II-66]	54 nM	586 nM	5010 nM	> 117 µg/mL	112 µg/mL (≈ 195 µM)	–	60 nM
C[C@H](Oc1cc(C2=CCOCC2)nc(-c2noc3c2CCC[C@@]32CCCc3sc(N)c(C#N)c32)n1)[C@@H]1CCCN1C [II-67]	28 nM	1040 nM	1300 nM	98 µg/mL (≈ 171 µM)	41 µg/mL (≈ 71.6 µM)	–	8 nM
Cc1cn(C)nc1-c1cc(O[C@@H](C)[C@@H]2CCCN2C)nc(-c2noc3c2CCC[C@@]32CCCc3sc(N)c(C#N)c32)n1 [II-68]	56 nM	111 nM	1230 nM	79 µg/mL (≈ 135 µM)	5 µg/mL (≈ 8.55 µM)	–	623 nM
C[C@H](Oc1cc(-c2cc[nH]n2)nc(-c2noc3c2CCC[C@@]32CCCc3sc(N)c(C#N)c32)n1)[C@@H]1CCCN1C [II-71]	28 nM	209 nM	933 nM	> 112 µg/mL	82 µg/mL (≈ 147 µM)	–	47 nM

The next molecules have a lower IC50 [1] than those just listed; values first:

IC50 [1]	IC50 (NCI-H358 cells; [3])	IC50 (NCI-H2122 cells)	solubility at 24 h [2, 4]	solubility at 24 h [2, 5]	IC50 (NCI-H358 cells; assay 1, CTG, read-out: H358 (assay 1) IC50)	SMILES	IC50 (SAS cells)
9 nM	–	6360 nM	40 µg/mL (≈ 69.6 µM)	8 µg/mL (≈ 13.9 µM)	36 nM	C[C@H](Oc1cc(N2CCNC2=O)nc(-c2noc3c2CCC[C@@]32CCCc3sc(N)c(C#N)c32)n1)[C@@H]1CCCN1C [II-64]	16 nM
18 nM	290 nM	515 nM	108 µg/mL (≈ 194 µM)	76 µg/mL (≈ 137 µM)	–	C[C@H](Oc1cc(-n2ccnc2)nc(-c2noc3c2CCC[C@@]32CCCc3sc(N)c(C#N)c32)n1)[C@@H]1CCCN1C [II-69]	102 nM
25 nM	131 nM	891 nM	109 µg/mL (≈ 195 µM)	94 µg/mL (≈ 169 µM)	–	C[C@H](Oc1cc(-n2cncn2)nc(-c2noc3c2CCC[C@@]32CCCc3sc(N)c(C#N)c32)n1)[C@@H]1CCCN1C [II-70]	41 nM

— patent US20240174690A1, “ANNULATED 2-AMINO-3-CYANO THIOPHENES AND DERIVATIVES FOR THE TREATMENT OF CANCER” (BOEHRINGER INGELHEIM INTERNATIONAL GMBH, priority 2021, published 2024)
